Paper PMC7021761 (Nature Communications, 2020)
One block for each substance: values may come before it.

How the values were obtained:
FPR1 = conditions: cited from earlier work
From the text: FPR1 and FPR2 share a high 69% sequence identity, but they have distinct preferences for formylpeptides and play different roles in host defense[4],[40],[43]. […] To explore the molecular basis for the different receptor pharmacology, we generated a three-dimensional homology model of FPR1 ...

C5aR = molecular target: T1, C5aR (Homo sapiens, UniProt P21730); experiment: 35S-GTPγS binding assay, Sf9 cell membranes overexpressing C5aR with purified Gi (control); assay type: biochemical; conditions: increasing concentrations of WKYMVm, n = 3
T1 construct: expressed in transfected cells; host or cells: Sf9 insect cells, membranes
T1 sequence (P21730 1-350): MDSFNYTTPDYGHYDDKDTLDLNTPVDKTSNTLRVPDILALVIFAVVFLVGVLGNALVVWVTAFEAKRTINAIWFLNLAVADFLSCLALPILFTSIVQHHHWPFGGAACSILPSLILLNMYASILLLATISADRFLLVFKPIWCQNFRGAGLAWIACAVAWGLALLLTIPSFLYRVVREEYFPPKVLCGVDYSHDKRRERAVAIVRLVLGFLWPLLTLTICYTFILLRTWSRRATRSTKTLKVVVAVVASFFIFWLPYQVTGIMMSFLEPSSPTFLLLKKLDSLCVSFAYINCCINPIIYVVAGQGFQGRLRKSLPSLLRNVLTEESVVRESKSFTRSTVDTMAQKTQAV
Protocol: To form receptor-Gi complex, ~250 μg/ml of membrane of Sf9 cells overexpressing FPR2 or C5aR (for Fig. 1a) or membrane of HEK-293 cells transiently expressing FPR2 and mutants was incubated with 200 nM purified Gi protein for 25 minutes at 4°C in buffer containing 20 mM HEPES pH 7.5, 100 mM NaCl, 5 mM MgCl2, 5 μM GDP, 0.1 μM TCEP, and 3 μg/ml BSA. […] After 10–15 min reaction at 25 °C, 4 ml of cold wash buffer containing 20 mM HEPES pH 7.5, 100 mM NaCl and 5 mM MgCl2 was added to terminate the reaction, and the membranes was collected by filtering through glass fiber prefilters (Millipore Sigma). After four times additional wash, the filters were incubated with 5 ml of CytoScint liquid scintillation cocktail (MP Biomedicals) and counted in a Beckman LS6500 scintillation counter to determine the receptor activation induced binding of ^35S-GTPγS to Gi. The data were analyzed by GraphPad Prism 6 (GraphPad Software). Results are presented as mean ± s.e.m. from three independent experiments.

FPR2 R201A [1] = molecular target: T2, FPR2 R201A (Homo sapiens, UniProt P25090, R201A); experiment: BRET assay of Gi coupling to FPR2-Rluc8, permeabilized HEK-293 cells, R201A; assay type: cell-based; design: expressed in transfected cells; host or cells: HEK-293 cells (ATCC), transient, digitonin-permeabilized
Protocol: (§1) HEK-293 cells (ATCC, Manassas, VA, USA) were propagated in plastic flasks and on 6-well plates according to the supplier’s protocol. To measure Gi coupling to FPR2, cells were transiently transfected with an FPR2-Rluc8 receptor (wt or mutant) and Gαi1, Venus-1-155-Gγ2 and Venus-155-239-Gβ1 using linear polyethyleneimine MAX (PEI MAX; MW 40,000) at an N/P ratio of 20 and were used for experiments 48 h later. Up to 3.0 μg of plasmid DNA was transfected in each well of a 6-well plate. To measure BRET signals, cells were washed twice with permeabilization buffer (KPS) containing 140 mM KCl, 10 mM NaCl, 1 mM MgCl2, 0.1 mM KEGTA, 20 mM NaHEPES (pH 7.2), harvested by trituration, permeabilized in KPS buffer containing 10 μg ml^−1 high purity digitonin, and transferred to opaque black 96-well plates containing diluted ligands and 2U ml^−1 apyrase. After addition of coelenterazine h (5 µM; Nanolight, Pinetop, AZ, USA), steady-state BRET measurements were made using a Mithras LB940 photon-counting plate reader (Berthold Technologies GmbH, Bad Wildbad, Germany). Raw BRET signals were calculated as the emission intensity at 520–545 nm divided by the emission intensity at 475–495 nm. The data were analyzed in Prism (GraphPad) by using ‘log(agonist) vs normalized response- variable slope (four parameters)’ of dose-response stimulation.
Target sequence in this assay (P25090 whole entry R201A): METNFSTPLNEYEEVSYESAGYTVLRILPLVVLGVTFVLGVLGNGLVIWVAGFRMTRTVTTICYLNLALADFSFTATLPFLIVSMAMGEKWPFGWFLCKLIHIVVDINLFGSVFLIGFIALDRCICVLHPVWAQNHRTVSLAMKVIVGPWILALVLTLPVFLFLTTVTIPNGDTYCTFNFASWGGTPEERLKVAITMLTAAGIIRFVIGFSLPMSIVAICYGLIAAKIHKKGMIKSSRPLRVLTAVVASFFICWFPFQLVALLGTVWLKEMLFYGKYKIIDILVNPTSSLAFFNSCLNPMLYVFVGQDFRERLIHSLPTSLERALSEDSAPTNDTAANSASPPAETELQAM
Target sequence in this assay (P63096 whole entry partner): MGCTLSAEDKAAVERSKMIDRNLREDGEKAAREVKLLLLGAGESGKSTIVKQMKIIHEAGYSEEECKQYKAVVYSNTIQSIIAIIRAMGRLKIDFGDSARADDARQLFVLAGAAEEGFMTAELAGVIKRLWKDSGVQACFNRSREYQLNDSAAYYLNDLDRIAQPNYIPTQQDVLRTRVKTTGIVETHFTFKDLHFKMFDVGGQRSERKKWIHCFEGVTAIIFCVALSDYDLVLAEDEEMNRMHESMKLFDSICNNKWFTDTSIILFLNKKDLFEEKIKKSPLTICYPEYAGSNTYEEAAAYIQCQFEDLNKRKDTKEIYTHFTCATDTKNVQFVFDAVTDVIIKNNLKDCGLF
Target sequence in this assay (P59768 whole entry partner): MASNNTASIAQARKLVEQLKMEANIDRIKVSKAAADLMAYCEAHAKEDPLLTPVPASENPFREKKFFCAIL
Target sequence in this assay (P62873 whole entry partner): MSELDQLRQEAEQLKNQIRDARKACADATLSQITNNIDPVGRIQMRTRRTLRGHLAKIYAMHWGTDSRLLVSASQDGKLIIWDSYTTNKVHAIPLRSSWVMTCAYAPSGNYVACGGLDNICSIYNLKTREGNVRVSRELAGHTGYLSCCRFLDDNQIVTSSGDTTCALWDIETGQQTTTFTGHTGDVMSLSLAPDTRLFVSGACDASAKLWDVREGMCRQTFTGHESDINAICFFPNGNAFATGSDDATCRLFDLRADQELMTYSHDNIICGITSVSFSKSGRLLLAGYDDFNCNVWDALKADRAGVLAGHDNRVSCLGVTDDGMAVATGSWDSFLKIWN

[2] = Aggregation of the ligand in assay buffer (authors' reply to reviewer); assay type: physicochemical; conditions: peptide with a high hydrophobicity; authors' statement in rebuttal, no data shown
FPR2 R201A [3] = molecular target: T2, FPR2 R201A; experiment: 35S-GTPγS binding assay, HEK-293 cell membranes with purified Gi, FPR2 R201A; assay type: biochemical; design: FLAG; expressed in transfected cells; host or cells: HEK-293 cells, transient, membranes
Target sequence in this assay (P25090 whole entry R201A): as the sequence (P25090 whole entry R201A) above
Target sequence in this assay (P63096 whole entry partner): as the sequence (P63096 whole entry partner) above
Target sequence in this assay (P54311 whole entry partner): as the sequence (P62873 whole entry partner) above
Target sequence in this assay (P63212 2-68 partner limits assumed): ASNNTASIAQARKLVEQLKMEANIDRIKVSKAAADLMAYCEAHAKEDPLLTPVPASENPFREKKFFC

FPR2 R205A [4] = molecular target: T3, FPR2 R205A (Homo sapiens, UniProt P25090, R205A); experiment: 35S-GTPγS binding assay, HEK-293 cell membranes with purified Gi, FPR2 R205A; assay type: biochemical; design: FLAG; expressed in transfected cells; host or cells: HEK-293 cells, transient, membranes
Target sequence in this assay (P25090 whole entry R205A): as the sequence (P25090 whole entry R201A) above, with A201R, R205A counted along it
Target sequence in this assay (P63096 whole entry partner): as the sequence (P63096 whole entry partner) above
Target sequence in this assay (P54311 whole entry partner): as the sequence (P62873 whole entry partner) above
Target sequence in this assay (P63212 2-68 partner limits assumed): as the sequence (P63212 2-68 partner limits assumed) above

FPR2 R205A [5] = molecular target: T3, FPR2 R205A; experiment: BRET assay of Gi coupling to FPR2-Rluc8, permeabilized HEK-293 cells, R205A; assay type: cell-based; design: expressed in transfected cells; host or cells: HEK-293 cells (ATCC), transient, digitonin-permeabilized
Protocol: as §1
Target sequence in this assay (P25090 whole entry R205A): as the sequence (P25090 whole entry R201A) above, with A201R, R205A counted along it
Target sequence in this assay (P63096 whole entry partner): as the sequence (P63096 whole entry partner) above
Target sequence in this assay (P59768 whole entry partner): as the sequence (P59768 whole entry partner) above
Target sequence in this assay (P62873 whole entry partner): as the sequence (P62873 whole entry partner) above

Wild type FPR2 = conditions: cited from earlier work
From the text: IC50 values of six formylpeptides in the cAMP accumulation assays reported previously by He et al., 2014*.

WKYMVm-induced Gi activation with C5aR (control) (C5aR): didn’t induce Gi activation
Substance: Trp-Lys-Tyr-Met-Val-d-Met-NH2 [WKYMVm, synthetic peptide agonist of FPR2]
potency for FPR1 compared with FPR2 (FPR1): lower potency

Substance: fMLF
fold more potent in activating FPR1 than activating FPR2 (FPR1): ~ 1000 fold

fMLFII-induced Gi coupling, R201A mutant versus wt (FPR2 R201A [1]): dramatic decrease | concentration above which fractions of aggregation could occur [2]: above 10 µM | fMLFII-induced FPR2 activation, R201A mutant versus wt (FPR2 R201A [3]): dramatic decrease | fMLFII-induced FPR2 activation, R205A mutant versus wt (FPR2 R205A [4]): dramatic decrease | fMLFII-induced Gi coupling, R205A mutant versus wt (FPR2 R205A [5]): dramatic decrease
Substance: fMLFII [short formylpeptide]

Substance: fMLFK
fold higher potency in activating FPR2 than fMLFE (Wild type FPR2): 500–5000 fold
